# Reference: publication PMC7880688, “Hormone-sensitive lipase couples intergenerational sterol metabolism to reproductive success” (eLife, 2021)
# Key:
# Assay type in all cases: biochemical
# [1] = target: T1, His6-MmHsl (murine Hsl) (Mus musculus, UniProt P54310); test: release of labelled fatty acid, scintillation counting; conditions: 0.45 mM substrate emulsified with PC/PI, 5% BSA, BTP buffer pH 7.5, 37°C, 60 min; labelled compound (14C-cholesteryl oleate tracer)
# T1 construct: gene Lipe; N-terminal His6 tag kept, COS-7 cell extract; plasmid described previously (Lass et al., 2006)
# T1 sequence (P54310 1-759): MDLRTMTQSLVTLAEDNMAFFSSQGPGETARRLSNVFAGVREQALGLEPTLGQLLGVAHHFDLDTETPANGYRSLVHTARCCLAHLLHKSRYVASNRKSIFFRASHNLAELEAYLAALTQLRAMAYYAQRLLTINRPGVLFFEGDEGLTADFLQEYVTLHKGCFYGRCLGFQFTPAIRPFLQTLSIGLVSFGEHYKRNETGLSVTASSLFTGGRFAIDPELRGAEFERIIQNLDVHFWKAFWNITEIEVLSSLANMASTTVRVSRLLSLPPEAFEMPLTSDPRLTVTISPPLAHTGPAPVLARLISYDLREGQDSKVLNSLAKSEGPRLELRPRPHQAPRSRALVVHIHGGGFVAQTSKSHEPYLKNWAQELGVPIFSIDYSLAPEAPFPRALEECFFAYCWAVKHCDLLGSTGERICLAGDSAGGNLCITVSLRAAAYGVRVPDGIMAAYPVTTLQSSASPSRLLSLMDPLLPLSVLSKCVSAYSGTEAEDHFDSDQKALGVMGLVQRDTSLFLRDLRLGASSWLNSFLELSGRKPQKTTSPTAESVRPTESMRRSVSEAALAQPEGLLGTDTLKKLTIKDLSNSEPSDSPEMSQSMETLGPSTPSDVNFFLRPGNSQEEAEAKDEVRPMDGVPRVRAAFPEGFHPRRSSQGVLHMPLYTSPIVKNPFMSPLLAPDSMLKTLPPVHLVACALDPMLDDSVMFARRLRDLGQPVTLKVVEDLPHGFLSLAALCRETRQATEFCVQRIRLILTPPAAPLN
# [2] = target: T2, His6-Hsl (Drosophila Hsl) (Drosophila melanogaster, UniProt A4UZQ8); test: as above; conditions: 0.45 mM substrate emulsified with PC/PI, 5% BSA, BTP buffer pH 7.5, 37°C, 60 min; labelled compound (14C-cholesteryl oleate tracer)
# T2 construct: Hsl open reading frame from cDNA RE52776 in pcDNA4/HisMax C, N-terminal His6 tag kept, COS-7 cell extract
# T2 sequence (A4UZQ8 2-881): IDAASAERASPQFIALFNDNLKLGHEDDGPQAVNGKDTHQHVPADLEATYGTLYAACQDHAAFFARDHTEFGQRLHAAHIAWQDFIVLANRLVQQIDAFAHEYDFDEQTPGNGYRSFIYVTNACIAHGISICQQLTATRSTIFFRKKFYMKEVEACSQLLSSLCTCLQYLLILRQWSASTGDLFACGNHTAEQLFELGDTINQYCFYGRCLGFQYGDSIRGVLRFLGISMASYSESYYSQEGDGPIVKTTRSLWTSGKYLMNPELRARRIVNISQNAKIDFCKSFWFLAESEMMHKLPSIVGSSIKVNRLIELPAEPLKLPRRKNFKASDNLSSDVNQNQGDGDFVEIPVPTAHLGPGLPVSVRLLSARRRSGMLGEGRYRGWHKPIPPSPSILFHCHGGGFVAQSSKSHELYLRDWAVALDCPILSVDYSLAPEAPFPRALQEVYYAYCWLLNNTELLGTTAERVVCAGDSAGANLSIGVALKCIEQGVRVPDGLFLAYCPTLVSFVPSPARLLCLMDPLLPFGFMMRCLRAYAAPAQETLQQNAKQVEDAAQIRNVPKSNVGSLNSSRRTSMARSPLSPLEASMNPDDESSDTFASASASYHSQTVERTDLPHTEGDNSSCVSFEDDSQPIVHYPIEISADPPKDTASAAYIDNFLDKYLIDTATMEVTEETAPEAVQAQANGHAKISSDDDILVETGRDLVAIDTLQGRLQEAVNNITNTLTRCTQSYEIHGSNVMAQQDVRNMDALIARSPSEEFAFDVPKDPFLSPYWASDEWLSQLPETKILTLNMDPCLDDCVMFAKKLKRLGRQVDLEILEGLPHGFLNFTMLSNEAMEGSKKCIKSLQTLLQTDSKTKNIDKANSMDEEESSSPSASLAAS
# [3] = target: T1, His6-MmHsl (murine Hsl); test: colorimetric free fatty acid release (NEFA kit); conditions: 0.3 mM substrate emulsified with PC/PI, 2% BSA, BTP buffer pH 7.5, 37°C, 30-60 min
# [4] = target: T2, His6-Hsl (Drosophila Hsl); test: colorimetric free fatty acid release (NEFA kit); conditions: 0.3 mM substrate emulsified with PC/PI, 2% BSA, BTP buffer pH 7.5, 37°C, 30-60 min
Structure (SMILES),"release of labelled fatty acid, scintillation counting [1]","release of labelled fatty acid, scintillation counting [2]",colorimetric free fatty acid release (NEFA kit) [3],colorimetric free fatty acid release (NEFA kit) [4]
"CCCCCCCC/C=C\CCCCCCCC(=O)O[C@H]1CC[C@@]2(C)C(=CC[C@H]3[C@@H]4CC[C@H]([C@H](C)CCCC(C)C)[C@@]4(C)CC[C@@H]32)C1 [CE 18:1, cholesteryl oleate]","Expression of His6-MmHsl increased cellular hydrolysis rates toward monoacylglycerol (MG), DG, TG, and SE","Expression of fly His6-Hsl elevated cellular hydrolysis rates toward MG, DG, TG, and SE",–,–
"CCCCCCCC/C=C\CCCCCCCC(=O)OCC(CO)OC(=O)CCCCCCC/C=C\CCCCCCCC (racemic) [DG 36:2, 1,2-dioleoyl-rac-glycerol]",–,–,"Expression of His6-MmHsl increased cellular hydrolysis rates toward monoacylglycerol (MG), DG, TG, and SE","Expression of fly His6-Hsl elevated cellular hydrolysis rates toward MG, DG, TG, and SE"
